The values below come from US10934282B2, “Heteroaromatic modulators of the retinoid-related orphan receptor gamma” (LEO PHARMA A/S, priority 2016, dated 2021).

Experiment [1] relates to IL-17A in Human peripheral mononuclear cells. The experiment can be described thus: Human PBMC IL-17A assay. Conditions: 72 h, EC50, antiCD3/antiCD28-coated beads, 3 days, alpha-LISA. Type of experiment: cell-based. On the procedure: This assay measures the IL-17A inhibitory potential of test compounds in Human peripheral mononuclear cells.
Peripheral blood mononuclear cells (PBMC) were isolated from human buffy coats using density grade centrifugation (Lymphoprep, Medinor), washed twice in PBS and frozen at −150° C. for later use.
Test compounds were diluted in DMSO and 70 nL of titrated test and reference compounds were transferred by the Echo liquid handling system to a 384-well assay plate in to give a final concentration of 0.1% DMSO in the wells.
The PBMC were thawed, washed and suspended in RPMI-1640 supplemented with pen/strep, glutamax and 10% bovine calf serum. The cells were mixed with antiCD3/antiCD28-coated beads (1 cells pr one bead) (Milteney T-cell expansion kit), and immediately thereafter the cells were pipetted to the plate at 130,000c/well. The plate was incubated for 3 days in humidified air/CO2 (95%/5%) On day 3 the level of IL-17A in the culture supernatant is measured using alpha-LISA kit (Perkin Elmer). Cell viability was measured by adding 6 uL pr well Prestoblue© (Life Technologies) and incubating for 2 hours followed by fluorescent measurement (Ex535/Em615). EC50 values were calculated using a 4-parameter non-linear regression curve-fitting model. Donors may be pre-screened in order to select PBMC with a high secretion of IL-17A.

Experiment [2] deals with T1, human RORgt nuclear receptor (RORgT ligand binding domain protein) (Homo sapiens, UniProt P51449).
T1 construct: purchased Proteros Biostructures GmbH
T1 sequence (P51449 with tags, fused parts or gaps): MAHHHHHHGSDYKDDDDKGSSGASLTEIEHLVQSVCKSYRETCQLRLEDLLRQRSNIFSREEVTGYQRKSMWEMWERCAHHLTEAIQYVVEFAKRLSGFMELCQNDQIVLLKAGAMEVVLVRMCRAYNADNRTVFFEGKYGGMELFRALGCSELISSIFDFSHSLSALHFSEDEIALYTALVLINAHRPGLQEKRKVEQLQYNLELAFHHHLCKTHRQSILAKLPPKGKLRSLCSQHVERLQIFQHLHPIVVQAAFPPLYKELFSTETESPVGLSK
The experiment can be described thus: ROR-gamma binding assay (Scintillation Proximity Assay, displacement of [3H]-25-hydroxycholesterol). The note with it: EC50, SPA, 15 nM [3H]-25-Hydroxycholesterol, RORgT LBD 12 nM. On the procedure:
This assay is used to evaluate the binding affinity of compounds to the ligand-binding pocket of the human RORgt nuclear receptor based on displacement of a radio-ligand. The EC50 values are calculated using a four parameter fit. Compounds binding with high affinity to RORgt will have low EC50 values.
The assay is a Scintillation Proximity Assay (SPA) that involves competition between an unlabeled test compound and tritium-labeled 25-hydroxycholesterol for binding to RORgT ligand binding domain (LBD) protein immobilized on the surface of SPA beads. These beads contain a scintillant that emits light if excited by a radioactive particle, and this light is detected using a scintillation counter. In this assay, tritium-labelled 25-hydroxycholesterol is used as radiotracer.
400 nL of titrated test and reference compounds in DMSO were transferred by the Echo liquid handling system to a 384-well assay plate followed by addition of 5 μL [3H]-25-Hydroxycholesterol (Perkin Elmer) and 35 μL diluted RORgT LBD protein with the following amino acid sequence (HIS-FLG-tag): MAHHHHHHGSDYKDDDDKGSSGASLTEIEHLVQSVCKSYRETCQLRLEDLLRQRSNIFSREEVTGYQRKSMWEMWERCAHHLTEAIQYVVEFAKRLSGFMELCQNDQIVLLKAGAMEVVLVRMCRAYNADNRTVFFEGKYGGMELFRALGCSELISSIFDFSHSLSALHFSEDEIALYTALVLINAHRPGLQEKRKVEQLQYNLELAFHHHLCKTHRQSILAKLPPKGKLRSLCSQHVERLQIFQHLHPIVVQAAFPPLYKELFSTETESPVGLSK (SEQ ID NO: 1) (Purchased from Proteros Biostructures GmbH). After 30 min of preincubation, 40 μL of HIS-TAG PVT SPA beads (Perkin Elmer) were added. The plates were then incubated for minimum 4 hours at room temperature in darkness before measuring the SPA signal using a MicroBeta plate scintillation counter. Final assay conditions were: 50 mM HEPES pH 7.4, 150 mM NaCl, 5 mM MgCl2, 0.1% BSA, 4 μg/well HIS-TAG PVT SPA Beads, 30 ng/well RORgT LBD (equal to a final concentration of 12 nM), 15 nM [^3H]-25-Hydroxycholesterol, 0.5% DMSO and varying concentrations of test compound in a total volume of 80 μL/well. EC50 values were calculated using a 4-parameter non-linear regression curve-fitting model.

For experiment [3], the system named is IL-17A levels in human peripheral blood. Description: tissue or blood. Format: cell-based. Conditions: 72 h, read-out: Human Whole blood IL-17A (nM).

Regarding `Cc1cc(CN2CCN(C(=O)C3CC3C)[C@@H](C)C2)c(C)c(Nc2nnc([C@@H](C)O)o2)c1` (stereo partly drawn) [Example 23, [(2S)-4-[[3-[[5-[(1R)-1-hydroxyethyl]-1,3,4-oxadiazol-2-yl]amino]-2,5-dimethyl-phenyl]methyl]-2-methyl-piperazin-1-yl]-(2-methylcyclopropyl)methanone], the values for the EC50 in experiment [1], in experiment [2] and in experiment [3] were 368 nM, 125 nM and 238 nM, respectively.
For `Cc1c(CN2CCN(C(=O)c3ccccc3)[C@@H](C)C2)cc(Cl)cc1Nc1nnc(C2CCOC2)o1` (stereo partly drawn) [Example 3, [(2S)-4-[[5-chloro-2-methyl-3-[(5-tetrahydrofuran-3-yl-1,3,4-oxadiazol-2-yl)amino]phenyl]methyl]-2-methyl-piperazin-1-yl]-phenyl-methanone], in that order: 51.1 nM, 22.3 nM and 204 nM.
For `Cc1c(CN2CCN(C(=O)c3ccccc3)[C@@H](C)C2)cc(Cl)cc1Nc1nnc(CCC#N)o1` [Example 7, 3-[5-[3-[[(3S)-4-benzoyl-3-methyl-piperazin-1-yl]methyl]-5-chloro-2-methyl-anilino]-1,3,4-oxadiazol-2-yl]propanenitrile], in that order: 49.8 nM, 33 nM and 219 nM.
Consider `Cc1c(CN2CCN(C(=O)C3CCC3)[C@@H](C)C2)cc(C(F)F)cc1Nc1nnc([C@H](C)O)o1` [Example 27, cyclobutyl-[(2S)-4-[[5-(difluoromethyl)-3-[[5-[(1S)-1-hydroxyethyl]-1,3,4-oxadiazol-2-yl]amino]-2-methyl-phenyl]methyl]-2-methyl-piperazin-1-yl]methanone], for which the figures for the EC50 in experiment [1], in experiment [2] and in experiment [3] were 425 nM, 95.9 nM and 457 nM, respectively.
On to `Cc1c(CN2CCN(C(=O)c3ccccc3)[C@@H](C)C2)cc(Cl)cc1Nc1nnc(C2CCCO2)o1` (stereo partly drawn) [Example 4, [(2S)-4-[[5-chloro-2-methyl-3-[(5-tetrahydrofuran-2-yl-1,3,4-oxadiazol-2-yl)amino]phenyl]methyl]-2-methyl-piperazin-1-yl]-phenyl-methanone], for which the EC50 was determined as 34.7 nM in experiment [1], 29.9 nM in experiment [2] and 428 nM in experiment [3].
For the compound `Cc1cc(CN2CCN(C(=O)OC(C)C)[C@@H](C)C2)c(C)c(Nc2nnc(C3CNC(=O)C3)o2)c1` (stereo partly drawn) [Example 51, isopropyl (2S)-4-[[2,5-dimethyl-3-[[5-(5-oxopyrrolidin-3-yl)-1,3,4-oxadiazol-2-yl]amino]phenyl]methyl]-2-methyl-piperazine-1-carboxylate], the EC50 in experiment [1] was 216 nM; in experiment [2], 64.4 nM; in experiment [3], 266 nM.
For `COCc1nnc(Nc2cc(Cl)cc(CN3CCN(C(=O)C4CCC(F)(F)C4)[C@@H](C)C3)c2C)o1` (stereo partly drawn) [Example 10, [(2S)-4-[[5-chloro-3-[[5-(methoxymethyl)-1,3,4-oxadiazol-2-yl]amino]-2-methyl-phenyl]methyl]-2-methyl-piperazin-1-yl]-(3,3-difluorocyclopentyl)methanone], in that order: 173 nM, 45.4 nM and 296 nM.
For `Cc1cc(CN2CCN(C(=O)OC(C)(C)C)[C@@H](C)C2)c(C)c(Nc2nnc(-c3nonc3C)o2)c1` [Example 34, tert-butyl (2S)-4-[[2,5-dimethyl-3-[[5-(4-methyl-1,2,5-oxadiazol-3-yl)-1,3,4-oxadiazol-2-yl]amino]phenyl]methyl]-2-methyl-piperazine-1-carboxylate], in that order: 24.8 nM, 24.6 nM and 83.7 nM.
As for `Cc1cc(CN2CCN(C(=O)OC(C)C)[C@@H](C)C2)c(C)c(Nc2nnc([C@@H](C)N)o2)c1` [Example 68, isopropyl (2S)-4-[[3-[[5-[(1R)-1-aminoethyl]-1,3,4-oxadiazol-2-yl]amino]-2,5-dimethyl-phenyl]methyl]-2-methyl-piperazine-1-carboxylate], the EC50 in experiment [1] came to 182 nM; in experiment [2], 103 nM; in experiment [3], 552 nM.
With `Cc1cc(CN2CCN(C(=O)OC(C)C)[C@@H](C)C2)c(C)c(Nc2nnc([C@@H]3CNC(=O)O3)o2)c1` [Example 52, isopropyl (2S)-4-[[2,5-dimethyl-3-[[5-[(5S)-2-oxooxazolidin-5-yl]-1,3,4-oxadiazol-2-yl]amino]phenyl]methyl]-2-methyl-piperazine-1-carboxylate], the EC50 in experiment [1] amounted to 134 nM; in experiment [2] it was 42.1 nM; in experiment [3], 256 nM.
With `Cc1cc(CN2CCN(C(=O)OC(C)C)[C@@H](C)C2)c(C)c(Nc2nnc(C3CCNC(=O)C3)o2)c1` (stereo partly drawn) [Example 58, isopropyl (2S)-4-[[2,5-dimethyl-3-[[5-(2-oxo-4-piperidyl)-1,3,4-oxadiazol-2-yl]amino]phenyl]methyl]-2-methyl-piperazine-1-carboxylate], the EC50 in experiment [1] is 373 nM; in experiment [2], 54.4 nM; in experiment [3], 215 nM.
As for `CC[C@H](C)C(=O)N1CCN(Cc2cc(Cl)cc(Nc3nnc(COC)o3)c2C)C[C@@H]1C` [Example 11, (2S)-1-[(2S)-4-[[5-chloro-3-[[5-(methoxymethyl)-1,3,4-oxadiazol-2-yl]amino]-2-methyl-phenyl]methyl]-2-methyl-piperazin-1-yl]-2-methyl-butan-1-one], the EC50 worked out at 92.6 nM in experiment [1], 28.1 nM in experiment [2] and 132 nM in experiment [3].
As for `Cc1cc(CN2CCN(C(=O)OC(C)C)[C@@H](C)C2)c(C)c(Nc2nnc([C@@H](C)O)o2)c1` [Example 56, isopropyl (2S)-4-[[3-[[5-[(1R)-1-hydroxyethyl]-1,3,4-oxadiazol-2-yl]amino]-2,5-dimethyl-phenyl]methyl]-2-methyl-piperazine-1-carboxylate], the EC50 stood at 51.9 nM in experiment [1], 36.5 nM in experiment [2] and 92.2 nM in experiment [3].
For `Cc1c(CN2CCN(C(=O)C3CCCC3)[C@@H](C)C2)cc(Cl)cc1Nc1nnc(CC#N)o1` [Example 18, 2-[5-[5-chloro-3-[[4-(cyclopentanecarbonyl)-3-methyl-piperazin-1-yl]methyl]-2-methyl-anilino]-1,3,4-oxadiazol-2-yl]acetonitrile], in that order: 69.8 nM, 21.2 nM and 203 nM.
For `Cc1cc(CN2CCN(C(=O)OC(C)C)[C@@H](C)C2)c(C)c(Nc2nnc([C@H](C)O)o2)c1` [Example 66, isopropyl (2S)-4-[[3-[[5-[(1S)-1-hydroxyethyl]-1,3,4-oxadiazol-2-yl]amino]-2,5-dimethyl-phenyl]methyl]-2-methyl-piperazine-1-carboxylate], the EC50 in experiment [1] stood at 77.6 nM; in experiment [2], 54.8 nM; in experiment [3], 140 nM.
